Results from patent publication US20260217767A1, “NOVEL A4B7 THIOETHER PEPTIDE DIMER ANTAGONISTS” (Protagonist Therapeutics, Inc., priority 2014, published 2026).
*1 amine or outer side, *2 acyl side, *3 side chain or, on linkers, in order; H or OH if unused. Where a SMILES comes first, the peptide text is derived from it. Bridges are numbered along the chain shown (N, C = ends). Roman numbers before positions name the chains, in order. [ ]: non-standard residue; d: D form. Bip = N[C@@H](Cc1ccc(-c2ccccc2)cc1)C(=O)O; Diglycolyl = O=C(COCC(=O)[*:2])[*:1]; NMeR = CN[C@@H](CCCNC(=N)N)C(=O)O; β3hE = N[C@@H](CCC(=O)O)CC(=O)O; X1 = O=C(c1ccccc1C[*:2])[*:1]; Pen = CC(C)(S)[C@H](N)C(=O)O

How the values were obtained:
α4β1 = target: T1, α4β1 (Homo sapiens, UniProt P05556+P13612); assay: α4β1-VCAM Competition ELISA; format: binding; conditions: thioether peptide dimers, Table 7; read-out: ELISA A4B1
T1 construct: purchased R&D Systems 5668-A4
Outline: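 rh VCAM-1-Fc coated plates; α4β1 (final 60 nM) and peptide (final 100 μM) incubated 2 h at 37° C. in 50 mM Tris-HCl pH 7.6, 100 mM NaCl, 1 mM MnCl2 or MgCl2, 0.05% Tween-20. Bound integrin detected with anti-CD49d 9F10 and HRP anti-mouse IgG, TMB read at 450 nm.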

Jurkat E6.1 cells = Jurkat E6.1 cells (Homo sapiens, UniProt P05556+P13612); assay: α4β1-VCAM Cell Adhesion Assay; format: cell-based; conditions: thioether peptide dimers, Table 7; read-out: Cell Adhesion A4B1
Outline: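 Jurkat E6.1 cells (200,000 per well, in DMEM with 0.1% BSA and 1 mM MnCl2) allowed to adhere to rh VCAM-1 Fc-coated wells with serially diluted peptide for 30-45 min at 37° C. After washing, bound cells quantified by MTT absorbance at 570 nm, cell-free background subtracted, for dose response.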

[1] = Simulated Gastric Fluid (SGF) Stability Assay; format: in vitro ADME; conditions: pig, simulated gastric fluid (with porcine pepsin), pH 2, 37° C., dimers, Table 7
Method: Simulated Gastric Fluid (SGF) Stability Assays
Studies were carried out in simulated gastric fluid (SGF) to evaluate intestinal stability of the peptide molecules of the instant invention. SGF was prepared by adding 20 mg NaCl, 32 mg porcine pepsin (MP Biochemicals, catalog 02102599), and 70 μl HCl to 10 ml water (final pH=2). Aliquots of SGF (0.5 ml each) were pre-warmed at 37° C. To start the reaction, 1 μl of peptide stock solution (10 mM in DMSO) was added to 0.5 ml SGF and thoroughly mixed such that the final peptide concentration was 20 μM. The reactions were incubated at 37° C. with gentle shaking. At each time point (0, 15, 30, 60 min) 50 μl aliquots were removed and added to 200 μl acetonitrile containing 0.1% formic acid to quench the reaction. Samples are stored at 4° C. until the end of the experiment and centrifuged at 10,000 rpm for 5 minutes. Aliquots of the supernatant were removed, diluted 1:1 into distilled water containing internal standard, and analyzed by LCMS/MS. Percent remaining at each timepoint was calculated based on the peak area response ratio of test to compound to internal standard. Time 0 was set to 100%, and all later timepoints were calculated relative to time 0. Half-lives were calculated by fitting to a first-order exponential decay equation using GraphPad.

T1 sequence (P13612 34-977 limits assumed): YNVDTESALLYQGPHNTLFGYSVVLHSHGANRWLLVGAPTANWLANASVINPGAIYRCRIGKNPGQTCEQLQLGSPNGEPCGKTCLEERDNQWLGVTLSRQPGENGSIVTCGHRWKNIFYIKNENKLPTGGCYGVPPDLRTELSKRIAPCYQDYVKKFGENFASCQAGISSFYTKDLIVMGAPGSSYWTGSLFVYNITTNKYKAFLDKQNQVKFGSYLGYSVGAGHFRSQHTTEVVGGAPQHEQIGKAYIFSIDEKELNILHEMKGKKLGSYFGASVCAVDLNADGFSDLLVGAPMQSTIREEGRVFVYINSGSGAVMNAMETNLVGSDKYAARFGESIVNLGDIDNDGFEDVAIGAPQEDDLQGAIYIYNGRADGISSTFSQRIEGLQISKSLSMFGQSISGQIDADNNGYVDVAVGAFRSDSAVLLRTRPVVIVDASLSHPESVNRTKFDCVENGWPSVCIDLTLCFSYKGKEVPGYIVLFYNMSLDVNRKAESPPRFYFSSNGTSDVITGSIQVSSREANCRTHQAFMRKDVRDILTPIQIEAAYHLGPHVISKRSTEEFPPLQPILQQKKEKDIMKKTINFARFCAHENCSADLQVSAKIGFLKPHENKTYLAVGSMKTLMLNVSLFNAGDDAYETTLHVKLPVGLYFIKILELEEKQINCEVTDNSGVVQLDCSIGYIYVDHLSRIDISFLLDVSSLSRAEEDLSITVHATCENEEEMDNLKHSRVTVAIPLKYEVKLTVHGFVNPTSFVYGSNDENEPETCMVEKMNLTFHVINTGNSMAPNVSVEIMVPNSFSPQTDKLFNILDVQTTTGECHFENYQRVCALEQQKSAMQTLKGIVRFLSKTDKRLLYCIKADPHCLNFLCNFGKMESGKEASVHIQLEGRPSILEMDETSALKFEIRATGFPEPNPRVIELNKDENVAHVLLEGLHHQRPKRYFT
T1 sequence (P05556 21-728 limits assumed): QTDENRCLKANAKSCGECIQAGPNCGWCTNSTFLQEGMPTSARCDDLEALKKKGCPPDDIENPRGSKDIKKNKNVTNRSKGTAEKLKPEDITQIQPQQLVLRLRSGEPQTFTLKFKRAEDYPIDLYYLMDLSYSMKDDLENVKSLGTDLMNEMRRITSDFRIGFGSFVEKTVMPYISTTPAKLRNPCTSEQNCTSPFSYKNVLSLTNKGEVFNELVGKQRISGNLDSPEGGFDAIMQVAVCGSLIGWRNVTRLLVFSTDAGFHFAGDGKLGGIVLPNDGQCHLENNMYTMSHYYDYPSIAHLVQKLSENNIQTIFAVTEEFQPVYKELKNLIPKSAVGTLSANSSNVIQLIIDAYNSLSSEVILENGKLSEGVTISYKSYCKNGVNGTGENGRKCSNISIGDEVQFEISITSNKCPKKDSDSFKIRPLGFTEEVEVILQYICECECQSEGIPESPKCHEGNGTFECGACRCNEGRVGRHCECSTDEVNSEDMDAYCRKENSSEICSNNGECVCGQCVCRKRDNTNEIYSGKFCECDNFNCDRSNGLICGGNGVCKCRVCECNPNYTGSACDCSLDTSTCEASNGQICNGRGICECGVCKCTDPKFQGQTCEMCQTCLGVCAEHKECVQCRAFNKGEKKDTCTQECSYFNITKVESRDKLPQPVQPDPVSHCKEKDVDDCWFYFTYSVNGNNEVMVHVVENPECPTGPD
Sequence of Jurkat E6.1 cells (P13612 34-1032): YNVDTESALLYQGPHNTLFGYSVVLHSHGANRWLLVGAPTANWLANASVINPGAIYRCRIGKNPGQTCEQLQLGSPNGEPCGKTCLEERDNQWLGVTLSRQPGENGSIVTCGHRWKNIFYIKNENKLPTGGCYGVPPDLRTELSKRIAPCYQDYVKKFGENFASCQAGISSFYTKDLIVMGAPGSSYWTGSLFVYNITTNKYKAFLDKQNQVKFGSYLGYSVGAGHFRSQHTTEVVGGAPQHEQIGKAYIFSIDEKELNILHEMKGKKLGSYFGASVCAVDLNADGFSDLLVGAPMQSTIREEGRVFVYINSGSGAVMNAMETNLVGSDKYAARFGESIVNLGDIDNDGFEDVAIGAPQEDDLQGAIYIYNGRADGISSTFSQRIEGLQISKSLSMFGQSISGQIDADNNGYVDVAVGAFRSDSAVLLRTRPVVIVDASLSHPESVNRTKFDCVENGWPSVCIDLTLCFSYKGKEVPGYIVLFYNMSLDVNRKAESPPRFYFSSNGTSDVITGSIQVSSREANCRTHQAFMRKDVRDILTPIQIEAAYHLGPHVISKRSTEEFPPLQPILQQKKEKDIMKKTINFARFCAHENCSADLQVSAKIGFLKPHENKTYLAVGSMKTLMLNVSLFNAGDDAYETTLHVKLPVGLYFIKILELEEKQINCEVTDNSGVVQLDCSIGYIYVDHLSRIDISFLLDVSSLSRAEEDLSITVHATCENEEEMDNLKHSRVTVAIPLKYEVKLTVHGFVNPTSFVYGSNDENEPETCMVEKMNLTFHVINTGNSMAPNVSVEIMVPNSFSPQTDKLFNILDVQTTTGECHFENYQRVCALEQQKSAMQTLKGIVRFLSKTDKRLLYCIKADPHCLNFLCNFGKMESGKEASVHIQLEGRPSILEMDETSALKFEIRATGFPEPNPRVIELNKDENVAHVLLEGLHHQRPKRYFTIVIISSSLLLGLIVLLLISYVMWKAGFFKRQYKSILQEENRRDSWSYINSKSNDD
Sequence of Jurkat E6.1 cells (P05556 21-798): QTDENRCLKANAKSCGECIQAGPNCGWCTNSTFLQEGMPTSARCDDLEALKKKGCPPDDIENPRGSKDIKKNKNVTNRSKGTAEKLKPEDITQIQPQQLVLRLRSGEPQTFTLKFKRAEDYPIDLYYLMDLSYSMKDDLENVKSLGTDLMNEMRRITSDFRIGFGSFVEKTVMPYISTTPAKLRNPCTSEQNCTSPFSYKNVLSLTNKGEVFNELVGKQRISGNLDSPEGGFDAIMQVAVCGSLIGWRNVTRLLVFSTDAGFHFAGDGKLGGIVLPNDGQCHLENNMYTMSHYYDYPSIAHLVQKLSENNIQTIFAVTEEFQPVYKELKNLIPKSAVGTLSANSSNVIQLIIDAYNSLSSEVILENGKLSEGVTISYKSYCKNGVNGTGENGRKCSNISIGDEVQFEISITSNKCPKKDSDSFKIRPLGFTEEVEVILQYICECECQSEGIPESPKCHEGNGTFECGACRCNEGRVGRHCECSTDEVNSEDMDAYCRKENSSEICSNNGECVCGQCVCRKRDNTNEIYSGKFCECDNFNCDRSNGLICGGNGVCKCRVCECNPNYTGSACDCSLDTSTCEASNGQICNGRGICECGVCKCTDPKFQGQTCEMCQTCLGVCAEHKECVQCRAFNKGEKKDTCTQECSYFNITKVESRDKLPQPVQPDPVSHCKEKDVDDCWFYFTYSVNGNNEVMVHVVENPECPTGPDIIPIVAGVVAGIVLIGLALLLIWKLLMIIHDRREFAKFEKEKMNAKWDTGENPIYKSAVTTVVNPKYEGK

Row | SMILES | IC50 (α4β1) [nM] | IC50 (Jurkat E6.1 cells) [µM] | half-life [1] [min]
1 | CC(C)C[C@@H]1NC(=O)[C@H]([C@@H](C)O)NC(=O)[C@H](CC(=O)O)NC(=O)[C@H](CO)NC(=O)[C@H](CCCNC(=N)N)N(C)C(=O)c2ccccc2CSC(C)(C)[C@@H](C(=O)N[C@@H](Cc2ccccc2)C(=O)N[C@H](CCC(=O)O)C(=O)N[C@H](CCCCNC(=O)COCC(=O)NCCCC[C@@H](NC(=O)[C@@H](CCC(=O)O)NC(=O)[C@H](Cc2ccccc2)NC(=O)[C@H]2NC(=O)[C@H](CC(C)C)NC(=O)[C@H]([C@@H](C)O)NC(=O)[C@H](CC(=O)O)NC(=O)[C@H](CO)NC(=O)[C@H](CCCNC(=N)N)N(C)C(=O)c3ccccc3CSC2(C)C)C(=O)O)C(=O)O)NC1=O [compound 204] (I: [NMeR]SDTL[Pen]F[dE][dK]-OH / II: [NMeR]SDTL[Pen]F[dE][dK]-OH; linker I:9-II:9 via Diglycolyl; linker I:N-I:6, II:N-II:6 via X1) | 100 to 1000 | > 100 | > 180
2 | CC(C)C[C@@H]1NC(=O)[C@H]([C@@H](C)O)NC(=O)[C@H](CC(=O)O)NC(=O)[C@H](CO)NC(=O)[C@H](CCCNC(=N)N)N(C)C(=O)c2ccccc2CSC(C)(C)[C@@H](C(=O)N[C@@H](Cc2ccc(-c3ccccc3)cc2)C(=O)N[C@H](CCC(=O)O)C(=O)N[C@H](CCCCNC(=O)COCC(=O)NCCCC[C@@H](NC(=O)[C@@H](CCC(=O)O)NC(=O)[C@H](Cc2ccc(-c3ccccc3)cc2)NC(=O)[C@H]2NC(=O)[C@H](CC(C)C)NC(=O)[C@H]([C@@H](C)O)NC(=O)[C@H](CC(=O)O)NC(=O)[C@H](CO)NC(=O)[C@H](CCCNC(=N)N)N(C)C(=O)c3ccccc3CSC2(C)C)C(=O)O)C(=O)O)NC1=O [compound 208] (I: [NMeR]SDTL[Pen][Bip][dE][dK]-OH / II: [NMeR]SDTL[Pen][Bip][dE][dK]-OH; linker I:9-II:9 via Diglycolyl; linker I:N-I:6, II:N-II:6 via X1) | 25 to 100 | > 100 | > 180
3 | CC(C)C[C@@H]1NC(=O)[C@H]([C@@H](C)O)NC(=O)[C@H](CC(=O)O)NC(=O)[C@H](CO)NC(=O)[C@H](CCCNC(=N)N)N(C)C(=O)c2ccccc2CSC(C)(C)[C@@H](C(=O)N[C@@H](Cc2c[nH]c3ccccc23)C(=O)N[C@H](CCC(=O)O)C(=O)N[C@H](CCCCNC(=O)COCC(=O)NCCCC[C@@H](NC(=O)[C@@H](CCC(=O)O)NC(=O)[C@H](Cc2c[nH]c3ccccc23)NC(=O)[C@H]2NC(=O)[C@H](CC(C)C)NC(=O)[C@H]([C@@H](C)O)NC(=O)[C@H](CC(=O)O)NC(=O)[C@H](CO)NC(=O)[C@H](CCCNC(=N)N)N(C)C(=O)c3ccccc3CSC2(C)C)C(=O)O)C(=O)O)NC1=O [compound 209] (I: [NMeR]SDTL[Pen]W[dE][dK]-OH / II: [NMeR]SDTL[Pen]W[dE][dK]-OH; linker I:9-II:9 via Diglycolyl; linker I:N-I:6, II:N-II:6 via X1) | 100 to 1000 | > 100 | –
4 | CC(C)C[C@@H]1NC(=O)[C@H]([C@@H](C)O)NC(=O)[C@H](CC(=O)O)NC(=O)[C@H](CO)NC(=O)[C@H](CCCNC(=N)N)N(C)C(=O)c2ccccc2CSC[C@H](C(=O)N[C@@H](Cc2c[nH]c3ccccc23)C(=O)N[C@@H](CCC(=O)O)CC(=O)N[C@H](CCCCNC(=O)COCC(=O)NCCCC[C@@H](NC(=O)C[C@H](CCC(=O)O)NC(=O)[C@H](Cc2c[nH]c3ccccc23)NC(=O)[C@H]2CSCc3ccccc3C(=O)N(C)[C@@H](CCCNC(=N)N)C(=O)N[C@@H](CO)C(=O)N[C@@H](CC(=O)O)C(=O)N[C@@H]([C@@H](C)O)C(=O)N[C@@H](CC(C)C)C(=O)N2)C(N)=O)C(N)=O)NC1=O [compound 156] (I: [NMeR]SDTL[dC]W[β3hE][dK]-NH2 / II: [NMeR]SDTL[dC]W[β3hE][dK]-NH2; linker I:9-II:9 via Diglycolyl; linker I:N-I:6, II:N-II:6 via X1) | 25 to 100 | > 100 | –
